Test results from publication PMC7357032, “Antiparasitic Constituents of Beilschmiedia louisii and Beilschmiedia obscura and Some Semisynthetic Derivatives (Lauraceae)” (Molecules, 2020).
Like-named read-outs stand apart in the source and are kept apart here. Blank lines part the entries; values can stand above or below the compound they belong to.

How the values were obtained:
[1] = tested on: Plasmodium falciparum strain Pf3D7; assay: In vitro antiplasmodial assay (pLDH assay); details: read-out: IC50 Pf3D7
[2] = Cytotoxicity assay (resazurin); format: cell-based; details: human, compounds and combinations, HeLa cells, read-out: % Cell Viability ± sd Cytotoxicity
Protocol: Human cervix adenocarcinoma cells (HeLa cells) were used to check the toxicity of the crude extract and compounds and their combinations as described by Keusch et al. (1972). Stocks solutions were prepared in DMSO at a concentration of 50 μg/mL for the extracts and 20 μM for compounds, and combinations. To assess the overt cytotoxicity, samples were placed in 96-well plates containing cells for 48 h. The numbers of cells surviving drug treatment were determined using the resazurin based reagent and reading resorufin fluorescence in a Spectramax M3 microplate reader. Results were expressed as % viability-the resorufin fluorescence in compound-treated wells relative to untreated controls. Compounds were tested in duplicate and standard deviations (SD) derived. […] (which induces cell apoptosis) was used as the positive control.

[3] = tested on: Trypanosoma brucei brucei; assay: In vitro antitrypanosomal assay (resazurin viability); details: for antitrypanosomal activity against Tb brucei (in words): in vitro; for IC50: Trypanosoma brucei
[4] = read-out: IC50 Tb brucei, compounds, values given in µg/mL in the text

IC50 [1]: 0.034 µM
Compound: CCN(CC)CCCC(C)Nc1ccnc2cc(Cl)ccc12 (stereo not drawn) [Chloroquine]

Compound: CCCC/C=C\CCCCc1ccccc1 [Compound 3, (5Z) 1-phenyldec-5-ene]
viability at 48 h, 20 µM (stock) [2]: 50.3 ± 8.9%

Compound: O=C(O)CCCCCCCCCCCCCCc1ccccc1 [Compound 5, 15-phenylpentadecanoic acid]
viability at 48 h, 20 µM (stock) [2]: 76.6 ± 4.1%

Compound: CCCCCCCCC1C2C=CC3C(C(=O)O)C=CC4CC1C2C43 (stereo not drawn) [Compound 11, beilschmiedic acid E]
antitrypanosomal activity against Tb brucei (in words) [3]: inactive
viability at 48 h, 20 µM (stock) [2]: 100 ± 5.8%

Compound: CCCCCCCCC1C2C=CC3C(CO)C=CC4CC1C2C43 (stereo not drawn) [Compound 11a, beilschmiedol A]
antitrypanosomal activity against Tb brucei (in words) [3]: moderate activity
viability at 48 h, 20 µM (stock) [2]: 52.6 ± 1.8%

Compound: CCCCCCCC[C@@H]1[C@H]2C=C[C@H]3C(C=O)=CC[C@@H]4C[C@@H]1[C@@H]2[C@H]43 [Compound 11b, beilschmiedal]
IC50 [1]: 31.4 µM
IC50 [3, 4]: 8.3 µg/mL
viability at 48 h, 20 µM (stock) [2]: 79.6 ± 17.1%

Compound: CCCCCCCC[C@@H]1[C@H]2C=C[C@H]3C(/C=N/NC(N)=S)=CC[C@@H]4C[C@@H]1[C@@H]2[C@H]43 [Compound 11c, beilschmiecarbazone]
viability at 48 h, 20 µM (stock) [2]: 100 ± 2.8%

Compound: CCCCCCCCC1C2C=CC3C(COC(=O)c4cc(OC)c(OC)c(OC)c4)C=CC4CC1C2C43 (stereo not drawn) [Compound 11d, beilschmiegallate]
viability at 48 h, 20 µM (stock) [2]: 100 ± 3.4%

Compound: O=C(O)C[C@@H]1[C@H]2C=C[C@H]3C(c4ccc5c(c4)OCO5)=CC[C@@H]4C[C@@H]1[C@@H]2[C@H]43 [Compound 12, methylenedioxyendiandric acid A]
viability at 48 h, 20 µM (stock) [2]: 100 ± 10.8%

Compound: CC[C@H](CC[C@@H](C)[C@H]1CC[C@H]2[C@@H]3CC=C4C[C@@H](O)CC[C@]4(C)[C@H]3CC[C@]12C)C(C)C [Compound 13, β-sitosterol]
IC50 ([3]; 48 h, read-out: IC50 Tb Brucei, isolated compounds, mixtures and drug standard, dose-response, for 6 + 7 IC50 maximum calculated with the constituent of lowest molecular mass): 9.5 µM

Compound: N=C(N)c1ccc(OCCCCCOc2ccc(C(=N)N)cc2)cc1 [Pentamidine, reference compound]
IC50 [3, 4]: ~0.01 µg/mL
